Measurements: patent publication US20250154607A1, “ISOTHERMAL AMPLIFICATION OF PATHOGENS” (priority 2021, published 2025)

Tests used:
[1] = test system: Chlamydia trachomatis elementary bodies; experiment: Lysis of Chlamydia trachomatis elementary bodies, read out by APA; conditions: lysis buffer 0.4% SDS, pH 2.2, 2 minutes at 78° C.; compared with heat lysis 5 minutes at 95° C.
Procedure: Elementary body lysis (˜40/reaction) was probed in this example using an APA-based assay. Elementary bodies (Acrometrix) were added to either cold chlamydia transport media (SPD containing sucrose, phosphate buffer, and glutamic acid), TE (Tris-EDTA 10-1), or lysis buffer containing 0.4% SDS, pH 2.2. The samples in TE or SDS were heated 5 minutes at 95° C. (heat lysis) or 2 minutes at 78° C. (SDS lysis), respectively. Then 5 μl (containing 40 elementary bodies) was added to “wet” APA reaction mix as above (pH 7.6 to facilitate isothermal CAdNTP activation) containing 4% cyclodextrin HP-βCD for isothermal APA (68° C.) with fluorescence from a chlamydia-specific molecular beacon collected every 15 seconds.

9° Nm™ DNA polymerase = 9° Nm™ DNA polymerase (Thermococcus sp., UniProt Q56366, E143D); experiment: Order-of-addition assay (APA of S. enterica DNA, SDS and hydroxypropyl β-CD); format: biochemical
Chain of 9° Nm™ DNA polymerase (Q56366 whole entry E143D): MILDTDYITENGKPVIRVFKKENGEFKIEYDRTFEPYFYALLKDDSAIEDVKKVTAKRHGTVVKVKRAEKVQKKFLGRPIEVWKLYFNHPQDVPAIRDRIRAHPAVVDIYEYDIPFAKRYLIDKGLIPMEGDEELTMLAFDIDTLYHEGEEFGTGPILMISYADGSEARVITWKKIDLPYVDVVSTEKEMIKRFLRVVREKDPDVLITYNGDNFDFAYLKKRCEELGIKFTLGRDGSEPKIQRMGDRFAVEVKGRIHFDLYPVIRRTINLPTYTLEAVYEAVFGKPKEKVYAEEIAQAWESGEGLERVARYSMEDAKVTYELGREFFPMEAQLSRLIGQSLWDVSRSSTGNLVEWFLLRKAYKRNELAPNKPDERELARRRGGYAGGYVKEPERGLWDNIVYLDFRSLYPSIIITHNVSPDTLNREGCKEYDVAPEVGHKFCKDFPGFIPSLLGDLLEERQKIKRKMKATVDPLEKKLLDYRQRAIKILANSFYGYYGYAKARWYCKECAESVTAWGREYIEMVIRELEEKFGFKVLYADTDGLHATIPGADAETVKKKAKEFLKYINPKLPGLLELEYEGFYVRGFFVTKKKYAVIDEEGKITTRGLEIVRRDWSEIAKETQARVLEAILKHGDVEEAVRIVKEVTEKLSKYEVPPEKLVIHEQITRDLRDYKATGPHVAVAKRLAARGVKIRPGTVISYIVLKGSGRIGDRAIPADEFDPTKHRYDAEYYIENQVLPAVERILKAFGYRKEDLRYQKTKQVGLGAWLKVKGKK
Procedure: Order-of-addition assay: Detection time dependent on cyclodextrin addition prior to brief interaction of enzymes with SDS. Since SDS rapidly and irreversibly inactivated 9° Nm™ DNA polymerase, when the enzyme is instead simultaneously exposed to SDS and β-CD, the kinetics of complexation of the latter two substances must be very rapid, compared with the rate of interaction between SDS and the enzyme.
FIG. 6 depicts data related to detection of S. enterica DNA target (50,000 copies) by APA reactions in a wet “hot-start” format mediated by CleanAmp™ deoxynucleotides (CAdNTP) containing Tris pH7.6, KCl, (NH4)2SO4, MgSO4, Triton X-100, SYBRI, CAdNTP, 9° Nm™ DNA polymerase, with additions of 0.4% SDS (X), 4% hydroxypropyl β-CD (squares), SDS then immediately β-CD (circles), or β-CD then SDS (solid line) with mixing. Control (ctrl dotted line) was no additions. All samples included DNA target. Isothermal APA was at 68° C., collecting intercalating dye fluorescence every 15 seconds to monitor all exponential DNA amplification. […] Negative controls for each condition without S. enterica DNA confirmed specificity of indicated amplification products (not shown).

RNase A [2] = biological target: T1, RNase A (Bos taurus, UniProt P61823); experiment: Requirements for irreversible RNase inactivation (influenza B RNA APA in presence of RNase A); format: biochemical; conditions: 500 ng RNase A (10 μg/ml); additions 0.2% SDS, 10 mM DTT, 0.1% Triton X-100 as labelled; 2 minutes at 58° C.; then 4% βCD
T1 sequence (P61823 27-150): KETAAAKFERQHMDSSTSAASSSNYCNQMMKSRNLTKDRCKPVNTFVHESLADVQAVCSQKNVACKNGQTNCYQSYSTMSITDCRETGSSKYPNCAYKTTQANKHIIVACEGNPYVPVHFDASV

nasal swab ribonucleases = experiment: Protection of RNA from nasal swab ribonucleases (influenza B RNA APA); format: biochemical, human
RNase A [3] = biological target: T1, RNase A; experiment: RNase Alert assay of RNase A activity recovery after SDS/DTT pretreatment; format: biochemical; conditions: 2 ng RNase A, 2 minutes at 58° C.; 10 mM DTT and/or 0.2% SDS; then 4% βCD
Procedure: 2 ng RNase A was incubated 2 minutes at 58° C. in […] solutions containing either 10 mM DTT+0.2% SDS (+), 0.2% SDS (triangle), 10 mM DTT (square), or neither (solid line) and then the RNase Alert assay was used to study the recovery of any RNase activity upon sequestration of SDS after dissolving lyophilized APA reagents without enzymes but containing RNase Alert substrate and protective agent (4% βCD) with continued incubation and fluorescence data collection at 58° C. In the presence of RNase activity, the RNase alert indicator substrate releases detectable fluorescence. […] FIG. 11A depicts recovery of RNase A activity after identical pretreatment without addition of βCD, in this case monitoring activity in […] of the solution by transfer to an RNase alert “wet” reaction format. […] Thus, as shown here, simultaneous treatment with ionic detergent and reducing agent is required for successful irreversible inactivation under the conditions described herein. […] Without being bound by any particular theory, this may be related to the impact of cyclodextrin and other APA additives on the refolding process. This example also provides further confirmation that the prior art and currently available methods (e.g, employing a reducing agent but no denaturant) are inadequate under these conditions, with an independent, commercially available RNase assay.

RNase A [4] = biological target: T1, RNase A; experiment: Influenza B virus APA assay with RNase A in ELB (Elution/Lysis Buffer); format: biochemical; conditions: RNAse A 10 μg/ml; 2 minutes 58° C. in ELB with 0.2% SDS, without or with 10 mM DTT; β-CD 4% final
Procedure: FIGS. 12A-12B depict data related to RNase A inactivation in an influenza B assay like the one in Example 4, with DTT in ELB (Elution/Lysis Buffer). […] After incubation, lyophilized APA reagents co-incubated 2 minutes 58° C., containing β-CD (4% final) were dissolved with the heated solutions, and FAM fluorescence collected every 15 seconds to monitor APA. […] The inclusion of DTT enables unimpeded operation of this POC influenza detection system in a mock sample containing very high level of purified RNase A ([…]). Moreover, while currently available methods can only achieve irreversible ribonuclease inactivation at a maximum 200 ng/ml, the compositions and methods provided herein show utility with 10 μg/ml to accommodate potentially larger amounts in patient samples.

nasal ribonuclease = experiment: Rapid irreversibility of nasal ribonuclease inactivation (RNase alert assay); format: biochemical; conditions: 0.2% SDS with or without 40 mM cysteine, 60° C.; immediately diluted into 4% β-cyclodextrin
Procedure: FIG. 13 depicts data related to the rapid irreversibility of nasal ribonuclease inactivation. 5 μl concentrated nasal swab eluate in TE, an amount equivalent to 2% on a typical nasal swab, was mixed with 45 μl of either lysis buffer containing 0.2% SDS (RBS, solid line), RBS containing 40 mM cysteine (squares), or water (dotted line) all preheated to 60° C. 5 μl was immediately diluted into 45 μl 4% β-cyclodextrin to sequester detergent. The recovered RNase activity was determined with an RNase alert assay; as control for the assay, an equivalent amount of nasal swab eluate was directly added without prior treatment (X). […] Unexpectedly, the effectively irreversible inactivation of ribonucleases thus observed during the practice of this invention was virtually instantaneous (monitored by directly testing ribonuclease activity), unlike prior art methods based upon heat. Also shown in this example is that the inactivation properties described for RNase A are also attributable to ribonucleases naturally occurring in nasal exudates.

CCCCCCCCCCCCOS(=O)(=O)[O-].[Na+] [SDS, sodium dodecyl sulfate]
Liberation of target DNA from elementary bodies (lysis) [1]: as effective in liberating target DNA as the heat lysis | Effect on APA amplification (9° Nm™ DNA polymerase; 0.4% SDS alone, S. enterica DNA 50,000 copies): Barrier to amplification | Effect on 9° Nm™ DNA polymerase (9° Nm™ DNA polymerase; 0.4% SDS then immediately β-CD (brief exposure)): sufficient to inactivate | Influenza B RNA detection by APA after RNase A pretreatment (RNase A [2]): did not prevent significant restoration of RNase A activity | RNA detectability eliminated by recovered RNase activity (assay calibration) (nasal swab ribonucleases; 0.2% SDS without DTT, 2-minute incubation at 58° C.): > 95% | Influenza B RNA detection after nasal swab eluate pretreatment and SDS sequestration (nasal swab ribonucleases; nasal swab eluate 4% of swab, 0.2% SDS with or without 10 mM DTT, 2 minutes at 58° C., then 4% βCD): no detection | Recovery of RNase A activity after pretreatment, with βCD (RNase A [3]): virtually full recovery of enzyme activity | Influenza B virus APA performance in presence of RNAse A (RNase A [4]): recovery of inhibitory levels of RNAse A | Reversibility of nasal RNase inactivation after SDS sequestration (nasal ribonuclease): virtually completely reversible
